Measurements: patent US11130748B2, “Compounds” (MISSION THERAPEUTICS LIMITED, priority 2015, dated 2021)

These molecules were tested against USP30 (Homo sapiens (Human), UniProt Q70CQ3) (assay: USP30 biochemical IC50 assay). Conditions: fluorescence polarisation, TAMRA labelled peptide linked to ubiquitin; 30 min pre-incubation, 2 hr read; read-out: IC50 range.
Protocol: USP30 Biochemical IC50 Assay
Dilution plates were prepared at 21 times the final concentration (2100 μM for a final concentration of 100 μM) in 50% DMSO in a 96-well polypropylene V-bottom plate (Greiner #651201). A typical 8-point dilution series to be 100, 30, 10, 3, 1, 0.3, 0.1, 0.03 μM final. Reactions were performed in duplicate in black 384 well plates (small volume, Greiner 784076) in a final reaction volume of 21 μl. Either 1 μl of 50% DMSO or diluted compound was added to the plate. USP30 was diluted in reaction buffer (40 mM Tris, pH 7.5, 0.005% Tween 20, 0.5 mg/ml BSA, 5 mM beta-mercaptoethanol) to the equivalent of 0.05 μl/well and 10 μl of diluted USP30 was added to the compound. Enzyme and compound were incubated for 30 min at room temp. Reactions were initiated by the addition of 50 nM of TAMRA labelled peptide linked to ubiquitin via an iso-peptide bond as fluorescence polarisation substrate. Reactions were read immediately after addition of substrate and following a 2 hr incubation at room temperature. Readings were performed on a Pherastar Plus (BMG Labtech). λ Excitation 540 nm; λ Emission 590 nm.

USP30, sequence (Q70CQ3 57-517): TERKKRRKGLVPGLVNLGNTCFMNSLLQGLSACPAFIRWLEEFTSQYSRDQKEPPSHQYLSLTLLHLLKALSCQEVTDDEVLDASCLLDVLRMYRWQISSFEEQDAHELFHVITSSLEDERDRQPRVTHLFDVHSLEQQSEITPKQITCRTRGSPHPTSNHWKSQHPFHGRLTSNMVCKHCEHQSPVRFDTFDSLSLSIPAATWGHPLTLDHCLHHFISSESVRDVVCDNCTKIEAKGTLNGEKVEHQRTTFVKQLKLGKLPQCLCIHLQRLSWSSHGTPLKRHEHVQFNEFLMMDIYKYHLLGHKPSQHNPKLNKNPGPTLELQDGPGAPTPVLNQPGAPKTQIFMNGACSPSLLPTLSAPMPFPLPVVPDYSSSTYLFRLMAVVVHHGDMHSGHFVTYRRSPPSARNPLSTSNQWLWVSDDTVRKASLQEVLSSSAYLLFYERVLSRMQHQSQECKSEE

Row | SMILES | IC50 [nM]
1 | CC(Nc1cc2ccccc2cn1)C1CCN(C#N)C1 (stereo not shown) [Example 50, 3-(1-(Isoquinolin-3-ylamino)ethyl)pyrrolidine-1-carbonitrile] | 1000 to 10000
2 | CC(Nc1cc2cc(C#N)ccc2cn1)C1CCN(C#N)C1 (stereo not shown) [Example 51, 3-((1-(1-Cyanopyrrolidin-3-yl)ethyl)amino)isoquinoline-6-carbonitrile] | 1000 to 10000
3 | CC(Nc1nc2ccc(C#N)cc2s1)C1CCN(C#N)C1 (stereo not shown) [Example 53, 2-((1-(1-Cyanopyrrolidin-3-yl)ethyl)amino)benzo[d]thiazole-6-carbonitrile] | 1000 to 10000
4 | N#CN1C[C@H]2CN(c3ncc(-c4ccccc4)s3)C(=O)[C@H]2C1 [Example 54, (3aR,6aS)-4-Oxo-5-(5-phenylthiazol-2-yl)hexahydropyrrolo[3,4-c]pyrrole-2(1H)-carbonitrile] | 1000 to 10000
5 | N#CN1CC[C@H](CNC(=O)c2nc3ccccc3[nH]2)C1 [Example 56] | 1000 to 10000
6 | N#CN1CC[C@H](CNC(=O)c2cc3ccccc3cn2)C1 [Example 57] | 1000 to 10000
7 | N#CN1CC[C@H](CNC(=O)c2cn3ccc(Cl)cc3n2)C1 [Example 65, (R)-7-Chloro-N-((1-cyano-pyrrolidin-3-yl)methyl) imidazo[1,2-a] pyridine-2-carboxamide] | 1000 to 10000
8 | N#CN1CC[C@H](CNC(=O)c2cn(-c3ccccc3)cn2)C1 [Example 70, (R)—N-((1-Cyanopyrrolidin-3-yl)methyl)-1-phenyl-1H-imidazole-4-carboxamide] | 1000 to 10000
9 | N#CN1CC[C@H](CNC(=O)c2cn3cc(-c4cn[nH]c4)ccc3n2)C1 [Example 75, (R)—N-((1-Cyanopyrrolidin-3-yl)methyl)-6-(H-pyrazol-4-yl)imidazo[1,2-a]pyridine-2-carboxamide] | 1000 to 10000
10 | N#CN1CC[C@H](CNC(=O)c2cn3cc(-c4ccn[nH]4)ccc3n2)C1 [Example 76] | 1000 to 10000
11 | N#CN1CC[C@H](CNC(=O)c2cn3ccc(C4CC4)cc3n2)C1 [Example 77, (R)—N-((1-Cyanopyrrolidin-3-yl)methyl)-7-cyclopropylimidazo[1,2-a]pyridine-2-carboxamide] | 100 to 1000
12 | N#CN1CC[C@H](CNC(=O)c2cn(Cc3ccccc3)cn2)C1 [Example 78, (R)-1-Benzyl-N-((1-cyanopyrrolidin-3-yl)methyl)-1H-imidazole-4-carboxamide] | 100 to 1000
13 | N#CN1CC[C@H](CNC(=O)c2cn(CC3CC3)cn2)C1 [Example 79, (R)—N-((1-Cyanopyrrolidin-3-yl)methyl)-1-(cyclopropylmethyl)-1H-imidazole-4-carboxamide] | 1000 to 10000

More lines, now with the values ahead:

Row | IC50 [nM] | SMILES
14 | 100 to 1000 | N#CC(Nc1nc2ccccc2s1)C1CCN(C#N)C1 (stereo not shown) [Example 52, 3-((Benzo[d]thiazol-2-ylamino)(cyano)methyl)pyrrolidine-1-carbonitrile]
15 | < 100 | N#CN1CC[C@H](CNC(=O)c2cc(-c3cccc(Cl)c3)no2)C1 [Example 55, (R)-3-(3-Chlorophenyl)-N-((1-cyanopyrrolidin-3-yl)methyl)isoxazole-5-carboxamide]
16 | 100 to 1000 | N#CN1CC[C@H](CNC(=O)c2cc(-c3ccccc3)ccn2)C1 [Example 59]
17 | 100 to 1000 | N#CN1CC[C@H](CNC(=O)c2ccc(-c3ccccc3)cn2)C1 [Example 60]
18 | < 100 | N#Cc1cccc(-c2nnc(C(=O)NC[C@H]3CCN(C#N)C3)o2)c1 [Example 68, (R)-5-(3-Cyanophenyl)-N-((1-cyanopyrrolidin-3-yl)methyl)-1,3,4-oxadiazole-2-carboxamide]
19 | < 100 | N#Cc1cccc(-c2nnc(C(=O)NC[C@@H]3CCN(C#N)C3)o2)c1 [Example 69, (S)-5-(3-Cyanophenyl)-N-((1-cyanopyrrolidin-3-yl)methyl)-1,3,4-oxadiazole-2-carboxamide]
20 | < 100 | N#Cc1cccc(-n2cnc(C(=O)NC[C@H]3CCN(C#N)C3)c2)c1 [Example 71, (R)-1-(3-Cyanophenyl)-N-((1-cyanopyrrolidin-3-yl)methyl)-1H-imidazole-4-carboxamide]
21 | 100 to 1000 | COc1ccccc1-n1cnc(C(=O)NC[C@H]2CCN(C#N)C2)c1 [Example 73, (R)—N-((1-Cyanopyrrolidin-3-yl)methyl)-1-(2-methoxyphenyl)-1H-imidazole-4-carboxamide]
22 | 100 to 1000 | COc1cccc(-n2cnc(C(=O)NC[C@H]3CCN(C#N)C3)c2)c1 [Example 74, (R)—N-((1-Cyanopyrrolidin-3-yl)methyl)-1-(3-methoxyphenyl)-1H-imidazole-4-carboxamide]
